Laboratory results taken from patent US9717775B2 (priority 2006, dated 2017).

How the values were obtained:
α9α10 nAChR = α9α10 nAChR (Rattus norvegicus, UniProt P43144+Q9JLB5); type: cell-based
α6/α3β4 nAChR = type: cell-based, rat
α6/α3β2β3 nAChR = type: cell-based, rat

Chain of α9α10 nAChR (P43144 26-479 limits assumed): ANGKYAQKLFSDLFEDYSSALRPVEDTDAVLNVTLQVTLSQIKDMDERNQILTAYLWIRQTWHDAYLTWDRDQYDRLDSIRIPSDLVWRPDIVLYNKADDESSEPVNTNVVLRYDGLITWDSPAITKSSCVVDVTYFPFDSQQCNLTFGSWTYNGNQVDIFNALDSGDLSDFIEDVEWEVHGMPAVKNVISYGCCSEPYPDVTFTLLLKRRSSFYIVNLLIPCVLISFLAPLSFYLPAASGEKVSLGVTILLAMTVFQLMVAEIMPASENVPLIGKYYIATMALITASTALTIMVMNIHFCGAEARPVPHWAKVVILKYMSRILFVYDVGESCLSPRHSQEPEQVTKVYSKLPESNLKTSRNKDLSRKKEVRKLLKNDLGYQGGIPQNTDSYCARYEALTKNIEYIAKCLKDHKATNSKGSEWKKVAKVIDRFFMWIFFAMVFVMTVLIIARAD
Chain of α9α10 nAChR (Q9JLB5 25-447 limits assumed): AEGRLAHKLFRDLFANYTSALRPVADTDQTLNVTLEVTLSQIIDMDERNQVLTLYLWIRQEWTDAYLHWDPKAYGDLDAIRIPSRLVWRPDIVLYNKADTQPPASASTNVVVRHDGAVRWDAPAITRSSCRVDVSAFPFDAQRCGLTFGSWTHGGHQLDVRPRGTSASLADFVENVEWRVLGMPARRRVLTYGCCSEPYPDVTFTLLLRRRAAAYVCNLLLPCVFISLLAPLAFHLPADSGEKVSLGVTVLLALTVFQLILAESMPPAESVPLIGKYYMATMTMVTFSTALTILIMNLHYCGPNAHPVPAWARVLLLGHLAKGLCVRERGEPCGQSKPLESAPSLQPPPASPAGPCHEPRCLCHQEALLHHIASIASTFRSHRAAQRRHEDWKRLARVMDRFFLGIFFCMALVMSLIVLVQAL

For α-conotoxin Vc1.1 [reference compound], the Hill slope (α9α10 nAChR) was 0.702±0.11, the IC50 (α9α10 nAChR) was 0.0229 µM and the IC50 (α6/α3β4 nAChR) was 0.982 µM. The IC50 (α6/α3β2β3 nAChR) was 0.144 µM.
